Results on 7 molecules are retold here after patent publication US20240124432A1, “HERBICIDAL COMPOUNDS” (SYNGENTA CROP PROTECTION AG, priority 2020, published 2024).

Format in all cases: in vivo
The subject of assay [1] is IPOHE. As to the kind of experiment: Pre-emergence biological efficacy. The conditions noted are these: Ipomoea hederacea, 312 h, evaluated after 13 days, read-out: damage to plant (100=total damage to plant; 0=no damage to plant). An outline of the steps: (§1)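 Seeds were sown in standard soil in pots, kept 1 day in a glasshouse (24/19 °C day/night, 16 h light), then sprayed with test compound formulated in acetone plus IF50 emulsifier mixture and diluted in 0.2% Genapol XO80 to the desired final dose. Damage was scored after 13 days (0–100).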

Assay [2] relates to LOLPE. As to the kind of experiment: Pre-emergence biological efficacy. The conditions noted are these: Lolium perenne, 312 h, evaluated after 13 days, read-out: damage to plant (100=total damage to plant; 0=no damage to plant). An outline of the steps: as §1
Assay [3] concerns AMAPA. As to the kind of experiment: Pre-emergence biological efficacy. The conditions noted are these: Amaranthus palmeri, 312 h, evaluated after 13 days, read-out: damage to plant (100=total damage to plant; 0=no damage to plant). The procedure, abridged:
as §1

In assay [4] the test system is EPHHL. As to the kind of experiment: Pre-emergence biological efficacy. The conditions noted are these: Euphorbia heterophylla, 312 h, evaluated after 13 days, read-out: damage to plant (100=total damage to plant; 0=no damage to plant). An outline of the steps: as §1
Assay [5] deals with SETFA. As to the kind of experiment: Pre-emergence biological efficacy. The conditions noted are these: Setaria faberi, 312 h, evaluated after 13 days, read-out: damage to plant (100=total damage to plant; 0=no damage to plant). An outline of the steps:
as §1

Assay [6] relates to ECHCG. As to the kind of experiment: Pre-emergence biological efficacy. The conditions noted are these: Echinochloa crus-galli, 312 h, evaluated after 13 days, read-out: damage to plant (100=total damage to plant; 0=no damage to plant). The procedure, abridged: as §1
The test system of assay [7] is ELEIN. As to the kind of experiment: Post-emergence biological efficacy. The conditions noted are these: 312 h, evaluated after 13 days, read-out: damage to plant (100=total damage to plant; 0=no damage to plant). An outline of the steps:
(§2)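 Plants grown 14 days in glasshouse, then sprayed post-emergence with compound formulated in IF50 and diluted in 0.2% Genapol XO80 to the desired dose. Damage scored after 13 days on a 0–100 scale (100 = total damage).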

Assay [8] has as its system IPOHE. As to the kind of experiment: Post-emergence biological efficacy. The conditions noted are these: Ipomoea hederacea, 312 h, evaluated after 13 days, read-out: damage to plant (100=total damage to plant; 0=no damage to plant). An outline of the steps:
as §2

Assay [9] concerns LOLPE. As to the kind of experiment: Post-emergence biological efficacy. The conditions noted are these: Lolium perenne, 312 h, evaluated after 13 days, read-out: damage to plant (100=total damage to plant; 0=no damage to plant). An outline of the steps:
as §2

For assay [10], the system named is AMAPA. As to the kind of experiment: Post-emergence biological efficacy. The conditions noted are these: Amaranthus palmeri, 312 h, evaluated after 13 days, read-out: damage to plant (100=total damage to plant; 0=no damage to plant). An outline of the steps:
as §2

For assay [11], the system named is CHEAL. As to the kind of experiment: Post-emergence biological efficacy. The conditions noted are these: Chenopodium album, 312 h, evaluated after 13 days, read-out: damage to plant (100=total damage to plant; 0=no damage to plant). An outline of the steps: as §2
The subject of assay [12] is EPHHL. As to the kind of experiment: Post-emergence biological efficacy. The conditions noted are these: Euphorbia heterophylla, 312 h, evaluated after 13 days, read-out: damage to plant (100=total damage to plant; 0=no damage to plant). An outline of the steps:
as §2

Assay [13] has as its system DIGSA. As to the kind of experiment: Post-emergence biological efficacy. The conditions noted are these: Digitaria sanguinalis, 312 h, evaluated after 13 days, read-out: damage to plant (100=total damage to plant; 0=no damage to plant). An outline of the steps: as §2
Assay [14] has as its system SETFA. As to the kind of experiment: Post-emergence biological efficacy. The conditions noted are these: Setaria faberi, 312 h, evaluated after 13 days, read-out: damage to plant (100=total damage to plant; 0=no damage to plant). An outline of the steps: as §2
In assay [15] the test system is ECHCG. As to the kind of experiment: Post-emergence biological efficacy. The conditions noted are these: Echinochloa crus-galli, 312 h, evaluated after 13 days, read-out: damage to plant (100=total damage to plant; 0=no damage to plant). An outline of the steps:
as §2

For the molecule `CCOC(=O)C1(C)CC(c2cc(-c3ncc(F)cc3F)c(F)cc2Cl)=NO1` (stereo not drawn) [Compound 1-551, Ethyl 3-[2-chloro-5-(3,5-difluoro-2-pyridyl)-4-fluoro-phenyl]-5-methyl-4H-isoxazole-5-carboxylate], the pest or weed control at 250 g/ha in [1] was 60%; in [2] it was 50%; in assay [3], 80%; in assay [4] it was 50%; in assay [5] it was 90%; in [6] it was 80%. Moreover, the pest or weed control at 250 g/ha in [7] came out at 100%; in [8], 100%; in assay [9], 100%; in assay [10], 100%; in [11], 100%; in assay [12] it was 90%. For the same molecule, the pest or weed control at 250 g/ha in assay [13], in assay [14] and in [15] was 100% throughout.
For `CCOC(=O)C1(C)CC(c2cc(-c3ccccc3Cl)c(F)cc2Cl)=NO1` (stereo not drawn) [Compound 1-19, Ethyl 3-[2-chloro-5-(2-chlorophenyl)-4-fluoro-phenyl]-5-methyl-4H-isoxazole-5-carboxylate], the pest or weed control at 250 g/ha in assay [1], in [2], in assay [3], in assay [4], in [5] and in [6] was 0% each time. The pest or weed control at 250 g/ha in assay [7] was 20%; in assay [8] it was 80%; in assay [9] it was 10%; in assay [10], 90%; in assay [11] it was 90%; in [12], 90%. The figures for the pest or weed control at 250 g/ha in assay [13], in assay [14] and in assay [15] were 20%, 40% and 20%, respectively.
`CCOC(=O)C1(C)CC(c2cc(-c3c(Cl)cc(C(F)(F)F)c[n+]3[O-])c(F)cc2Cl)=NO1` (stereo not drawn) [Compound 1-667, Ethyl 3-[2-chloro-5-(3-chloro-1-oxido-5-trifluoromethyl-2-pyridyl)-4-fluoro-phenyl]-5-methyl-4H-isoxazole-5-carboxylate]: the pest or weed control at 250 g/ha in assay [1], in assay [2], in assay [3], in [4], in assay [5] and in assay [6] was 100% in each case. The pest or weed control at 250 g/ha in assay [7], in assay [8], in assay [9], in assay [10], in assay [11] and in [12] was 100% in each case. Moreover, the pest or weed control at 250 g/ha in assay [13], in assay [14] and in [15] was 100% in each case.
Regarding `CCOC(=O)C1(C)CC(c2cc(-c3cncc(Cl)c3)c(F)cc2Cl)=NO1` (stereo not drawn) [Compound 1-271, Ethyl 3-[2-chloro-5-(5-chloro-3-pyridyl)-4-fluoro-phenyl]-5-methyl-4H-isoxazole-5-carboxylate], the pest or weed control at 250 g/ha in assay [1], in [2], in [3], in assay [4], in assay [5] and in assay [6] was 0% in each case. The pest or weed control at 250 g/ha in assay [7] came to 20%; in [8], 100%; in [9] it was 0%; in assay [10], 90%; in assay [11], 70%; in assay [12], 40%. Also, the results for the pest or weed control at 250 g/ha in assay [13], in assay [14] and in assay [15] were 20%, 50% and 20%, respectively.
Turning to `CCOC(=O)C1(C)CC(c2cc(-c3cc(Cl)nc(OC)c3)c(F)cc2Cl)=NO1` (stereo not drawn) [Compound 1-523, Ethyl 3-[2-chloro-5-(2-chloro-6-methoxy-4-pyridyl)-4-fluoro-phenyl]-5-methyl-4H-isoxazole-5-carboxylate], the pest or weed control at 250 g/ha in assay [1] stood at 0%; in [2] it was 0%; in assay [3], 0%; in [4] it was 0%; in [5], 0%; in assay [6], 20%. Moreover, the pest or weed control at 250 g/ha is 10% in assay [7]; 60% in [8]; 0% in assay [9]; 50% in assay [10]; 40% in assay [11]; 50% in assay [12]. For the same molecule, the pest or weed control at 250 g/ha in assay [13] is 50%; in [14], 50%; in assay [15] it was 20%.
With `CCOC(=O)C1(C)CC(c2cc(-c3cc(C)cc(F)n3)c(F)cc2Cl)=NO1` (stereo not drawn) [Compound 1-367, Ethyl 3-[2-chloro-4-fluoro-5-(6-fluoro-4-methyl-2-pyridyl)-phenyl]-5-methyl-4H-isoxazole-5-carboxylate], the pest or weed control at 250 g/ha in assay [1], in [2], in [3], in assay [4], in assay [5] and in [6] was 0% throughout. Besides, the pest or weed control at 250 g/ha in [7] amounted to 20%; in assay [8], 40%; in [9], 0%; in assay [10], 0%; in [11], 20%; in assay [12], 30%. In addition, the figures for the pest or weed control at 250 g/ha in assay [13], in assay [14] and in [15] were 50%, 40% and 40%, respectively.
For `CCOC(=O)C1(C)CC(c2cc(-c3nccnc3C(F)(F)F)c(F)cc2Cl)=NO1` (stereo not drawn) [Compound 1-823, Ethyl 3-[2-chloro-4-fluoro-5-[3-(trifluoromethyl)pyrazin-2-yl]phenyl]-5-methyl-4H-isoxazole-5-carboxylate], the pest or weed control at 250 g/ha came to 90% in [1]; 20% in assay [2]; 0% in [3]; 40% in assay [4]; 20% in assay [5]; 20% in assay [6]. Besides, the pest or weed control at 250 g/ha in assay [7] was determined as 30%; in assay [8], 60%; in [9], 10%; in assay [10], 60%; in [11] it was 60%; in assay [12], 60%. Further, the pest or weed control at 250 g/ha in assay [13] was 50%; in [14] it was 60%; in assay [15], 70%.
